A word on the MIC: it is the lowest concentration found to suppress growth.

Experiment [1] has as its system S. aureus (ATCC 25904) biofilm. The experiment is described as follows: Biofilm formation on polystyrene (crystal violet). The format is cell-based, Staphylococcus aureus. Conditions: 20 hours. As to the method: (§1) S. aureus (ATCC 25904) was grown overnight in TSB medium, before being diluted 100 fold in fresh TSB, and incubated aerobically at 37° C. until bacteria culture reached an OD600 of 0.6 (corresponding to approximately 1-3×10^8 CFU/ml). Bacteria cultures were then diluted to 1×10^4 CFU/ml in fresh TSB. 800 μl aliquots of diluted bacteria suspensions were distributed in each well of a 24-well plate. Bacteria were allowed to adhere for 4 hours under static conditions at 37° C. After removing media, wells were rinsed 2 times with PBS to eliminate planktonic bacteria and re-filled with TSB supplemented with 0.5% glucose
Triafluocyl or DMSO as vehicle was then added at desired concentration and plates were incubated at 37° C. for 20 hours. After incubation, wells were washed and stained with 0.5% (w/v) crystal violet for 30 minutes, washed again and the dye was solubilized by adding 20% acetic acid (v/v in water) before reading absorbance at 595 nm.
S. aureus biofilms were formed on polystyrene surface in the presence of increasing concentrations of Triafluocyl or DMSO as vehicle. In FIG. 2, Biofilm mass is presented as percentage of values obtained in the presence of DMSO (*P<0.05; **P<0.01; ***P<0.001, Triafluocyl versus DMSO, n=4).
as §1, with “Staphyloccocus” for “S.”, “or Staphyloccocus epidermidis (ATCC 35984) were” for “was”, “TSB. Aliquots of” for “TSB.”, “μl” for “μl aliquots of”, “removing the” for “removing”, “glucose containing Fluometacyl at desired concentration or DMSO alone (Ctrl). […] The dye was solubilized by adding 20% acetic acid (v/v in water) before reading absorbance at 595 nm. […]” for “glucose”

In experiment [2] the test system is Pseudomonas aeruginosa (ATCC 27853). Description: MIC determination with or without C12(ω7)Kβ12 (OAK). It counts as cell-based. To be noted: for MIC: Pseudomonas aeruginosa, ATCC27853, in presence of 10 μg/ml OAK (C12(ω7)Kβ12). As for the experimental part:
Determination of Minimal Inhibitory Concentration (MIC) of Triafluocyl (Cayman Chemical, Item No. 15425) in presence of C12(ω7)Kβ12 (provided by Custom synthesis Biomers Germany) against Pseudomonas aeruginosa (ATCC 27853).
A single colony of Pseudomonas aeruginosa grown on a Tryptic Soy agar (TSA) plate is resuspended and cultured in Tryptic Soy Broth (TSB) medium overnight (O/N) in aerobic conditions (37° C. with 190 rpm shaking in New Brunswick Innova 4200 Incubator Shaker). Next day the resulting inoculum is diluted again at 1:100 in Mueller-Hinton broth (MHB) and then incubated in aerobic conditions for 1 h30 (OD=0.08-0.1) to reach an exponential phase in the grown curve. A resulting inoculum corresponding to around 5×10^5 colony forming unit (CFU)/ml, is further incubated in presence or absence of different concentrations (10 and 20 μg/ml) of Triafluocyl in 2% DMSO with or without C12(ω7)Kβ12 for 18 hr in aerobic conditions (37° C. with 190 rpm shaking in New Brunswick Innova 4200 Incubator Shaker). Growth of Pseudomonas aeruginosa in each condition depicted in FIG. 15A is evaluated by reading the OD of each culture at 600 nm (OD600) in a spectrophotometer (Fisher Scientific, cell density meter model 40).
Determination of Minimal Inhibitory Concentration (MIC) of Fluometacyl (prepared according to WO99/0514) in presence of C12(ω7)Kβ12 (provided by Biomers.net Germany) against Pseudomonas aeruginosa (ATCC 27853). The C12(ω7)Kβ12 was synthesized by solid-phase method as described by I. Radzishevsky in Antimicrobial Agents and Chemotherapy, May 2007 (1753-1759) (https://aac.asm.org/content/51/5/1753)
A single colony of Pseudomonas aeruginosa grown on a Tryptic Soy agar (TSA) plate is resuspended and cultured in Tryptic Soy Broth (TSB) medium overnight (O/N) in aerobic conditions (37° C. with 220 rpm shaking in New Brunswick Innova 4200 Incubator Shaker). Next day the resulting inoculum is diluted again at 1:100 in Mueller-Hinton broth (MHB) and then incubated in aerobic conditions for 1 h30 (OD=0.08-0.1) to reach an exponential phase in the grown curve. A resulting inoculum corresponding to around 5×10^5 colony forming unit (CFU)/ml, is further incubated in presence or absence of different concentrations (10 and 20 μg/ml) of Fluometacyl in 2% DMSO with or without C12(ω7)Kβ12 for 18 hr in aerobic conditions (37° C. with 190 rpm shaking in New Brunswick Innova 4200 Incubator Shaker). Growth of Pseudomonas aeruginosa in each condition depicted in FIG. 16A is evaluated by reading the Optical Density of each culture at 600 nm (OD600) in a spectrophotometer (Fisher Scientific, cell density meter model 40).

For the molecule `CCCSc1nc(N[C@@H]2C[C@H]2c2ccc(F)c(F)c2)c2nnn([C@@H]3C[C@H](O)[C@@H](O)[C@H]3O)c2n1` [Fluometacyl, (1S,2R,3S,4R)-4-[7-[[(1R,2S)-2-(3,4-Difluorophenyl)cyclopropyl]amino]-5-(propylthio)-3H-1,2,3-triazolo[4,5-d]pyrimidin-3-yl]-1,2,3-cyclopentanetriol], the “S. aureus biofilm formation” value in experiment [1] (38 μM, FIG. 10A) is recorded as “could not form any biofilm”. Further, the MIC in experiment [2] amounted to 20 µg/mL. Moreover, the “inhibition of P. aeruginosa growth” value in experiment [2] (taken alone at a concentration of 20 μg/ml) is “unable to inhibit P. aeruginosa growth”.

As to `CCCSc1nc(N[C@@H]2C[C@H]2c2ccc(F)c(F)c2)c2nnn([C@@H]3C[C@H](OCCO)[C@@H](O)[C@H]3O)c2n1` [Triafluocyl, (1S,2S,3R,5S)-3-[7-[(1R,2S)-2-(3,4-difluorophenyl)cyclopropylamino]-5-(propylthio)-3H-[1,2,3]-triazolo[4,5-d]pyrimidin-3-yl]-5-(2-hydroxyethoxy)-1,2-cyclopentanediol], the “S. aureus biofilm formation” value in experiment [1] (10 μg/ml, polystyrene surface) is “no biofilm could form”; in experiment [1] (all concentrations tested, versus DMSO) it was “significantly reduces”. For the same molecule, the MIC in experiment [2] turned out to be 10 µg/mL. Besides, the “inhibition of P. aeruginosa growth” value in experiment [2] (taken alone at a concentration of 10 μg/ml) is reported as “unable to inhibit P. aeruginosa growth”.

The record behind these values is US10905691B2, “Use of triazolo(4,5-d)pyrimidine derivatives for prevention and treatment of bacterial infection” (Universite de Liege, priority 2016, dated 2021).
